From ChEMBL document CHEMBL3861949 (Medchemcomm, 2016)
pEC50, pIC50, pKi: −log10 of the molar value.

Assays:
[1] = Cytotoxicity against human MRC5 cells; assay type: toxicity, cell-based
Saccharomyces cerevisiae [2] = assay: Ratio of IC50 for Saccharomyces cerevisiae wild type KRS1 to IC50 for Saccharomyces cerevisiae KRS1 Gln324Val mutant
[3] = Inhibition of Plasmodium falciparum Lysyl-tRNA ligase expressed in Escherichia coli Tuner (DE3) cells assessed as suppression of L-lysine-tRNA(Lys) formation in presence of AMP-Alexa633 tracer after 4 hrs by fluorescence polarization assay
Saccharomyces cerevisiae [4] = assay: Ratio of IC50 for Saccharomyces cerevisiae wild type KRS1 to IC50 for Saccharomyces cerevisiae KRS1 Gln324Val/Thr340Ser mutant
Saccharomyces cerevisiae [5] = assay: Ratio of IC50 for Saccharomyces cerevisiae wild type KRS1 to IC50 for Saccharomyces cerevisiae KRS1 Thr340Ser mutant
[6] = Selectivity ratio of IC50 for human Lysyl-tRNA ligase to IC50 for Plasmodium falciparum Lysyl-tRNA ligase
Plasmodium berghei = assay: Antimalarial activity against liver stage of Plasmodium berghei ANKA; assay type: functional
[7] = Inhibition of bovine liver TrpRS assessed as suppression of L-[5-3H]tryptophanyl-tRNA formation after 10 mins by liquid scintillation counting method; design: species or system Bos taurus
[8] = Inhibition of Escherichia coli TrpRS assessed as suppression of L-[5-3H]tryptophanyl-tRNA formation after 10 mins by liquid scintillation counting method
Isoleucine--tRNA ligase [9] = target: Isoleucine--tRNA ligase (Thermus thermophilus (strain HB8 / ATCC 27634 / DSM 579), UniProt P56690, L583F); assay: Inhibition of recombinant Thermus thermophilus HB8 IleRS L583F mutant assessed as suppression of L-[14C]isoleucyl-tRNA(Ile) formation
Isoleucine--tRNA ligase [10] = target: Isoleucine--tRNA ligase (Thermus thermophilus (strain HB8 / ATCC 27634 / DSM 579), UniProt P56690, H581N/L583F); assay: Inhibition of recombinant Thermus thermophilus HB8 IleRS H581N/L583F double mutant assessed as suppression of L-[14C]isoleucyl-tRNA(Ile) formation
Isoleucine--tRNA ligase [11] = target: Isoleucine--tRNA ligase (Thermus thermophilus (strain HB8 / ATCC 27634 / DSM 579), UniProt P56690, H581L/L583H); assay: Inhibition of recombinant Thermus thermophilus HB8 IleRS H581L/L583H double mutant assessed as suppression of L-[14C]isoleucyl-tRNA(Ile) formation
Isoleucine--tRNA ligase [12] = target: T1, Isoleucine--tRNA ligase (Thermus thermophilus (strain HB8 / ATCC 27634 / DSM 579), UniProt P56690); assay: Inhibition of recombinant Thermus thermophilus HB8 wild type IleRS assessed as suppression of L-[14C]isoleucyl-tRNA(Ile) formation
T1 sequence (P56690 whole entry): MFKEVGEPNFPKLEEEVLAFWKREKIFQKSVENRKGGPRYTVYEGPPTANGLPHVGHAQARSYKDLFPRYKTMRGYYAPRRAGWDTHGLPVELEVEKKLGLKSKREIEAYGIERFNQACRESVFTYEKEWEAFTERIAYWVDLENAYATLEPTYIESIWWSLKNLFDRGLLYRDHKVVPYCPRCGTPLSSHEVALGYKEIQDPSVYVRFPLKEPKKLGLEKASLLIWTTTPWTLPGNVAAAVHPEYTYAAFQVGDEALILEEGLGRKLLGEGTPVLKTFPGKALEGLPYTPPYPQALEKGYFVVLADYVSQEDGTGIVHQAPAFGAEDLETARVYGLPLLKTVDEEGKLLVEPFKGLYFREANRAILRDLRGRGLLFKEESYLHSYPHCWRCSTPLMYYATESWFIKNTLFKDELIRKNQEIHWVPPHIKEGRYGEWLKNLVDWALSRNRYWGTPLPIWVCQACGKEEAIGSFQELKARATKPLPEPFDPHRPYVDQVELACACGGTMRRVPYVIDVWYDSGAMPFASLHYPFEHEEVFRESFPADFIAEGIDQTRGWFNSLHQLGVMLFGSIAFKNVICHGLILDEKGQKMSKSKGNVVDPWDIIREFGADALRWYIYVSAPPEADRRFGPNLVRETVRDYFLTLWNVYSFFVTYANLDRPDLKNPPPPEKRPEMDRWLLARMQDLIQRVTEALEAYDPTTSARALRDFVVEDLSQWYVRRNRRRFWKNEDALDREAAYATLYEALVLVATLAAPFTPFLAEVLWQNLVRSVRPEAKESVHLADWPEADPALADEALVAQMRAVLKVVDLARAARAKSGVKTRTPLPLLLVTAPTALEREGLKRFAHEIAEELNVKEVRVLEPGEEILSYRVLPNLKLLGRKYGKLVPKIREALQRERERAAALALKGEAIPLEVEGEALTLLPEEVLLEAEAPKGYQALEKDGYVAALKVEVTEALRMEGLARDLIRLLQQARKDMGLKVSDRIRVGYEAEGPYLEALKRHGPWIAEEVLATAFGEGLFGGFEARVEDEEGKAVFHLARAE

Isoleucine--tRNA ligase [13] = target: Isoleucine--tRNA ligase (Thermus thermophilus (strain HB8 / ATCC 27634 / DSM 579), UniProt P56690, H581S/L583I); assay: Inhibition of recombinant Thermus thermophilus HB8 IleRS H581S/L583I double mutant assessed as suppression of L-[14C]isoleucyl-tRNA(Ile) formation
Sequence of Isoleucine--tRNA ligase (Thermus thermophilus (strain HB8 / ATCC 27634 / DSM 579), UniProt P56690, H581S/L583I) (P56690 whole entry H581S/L583I): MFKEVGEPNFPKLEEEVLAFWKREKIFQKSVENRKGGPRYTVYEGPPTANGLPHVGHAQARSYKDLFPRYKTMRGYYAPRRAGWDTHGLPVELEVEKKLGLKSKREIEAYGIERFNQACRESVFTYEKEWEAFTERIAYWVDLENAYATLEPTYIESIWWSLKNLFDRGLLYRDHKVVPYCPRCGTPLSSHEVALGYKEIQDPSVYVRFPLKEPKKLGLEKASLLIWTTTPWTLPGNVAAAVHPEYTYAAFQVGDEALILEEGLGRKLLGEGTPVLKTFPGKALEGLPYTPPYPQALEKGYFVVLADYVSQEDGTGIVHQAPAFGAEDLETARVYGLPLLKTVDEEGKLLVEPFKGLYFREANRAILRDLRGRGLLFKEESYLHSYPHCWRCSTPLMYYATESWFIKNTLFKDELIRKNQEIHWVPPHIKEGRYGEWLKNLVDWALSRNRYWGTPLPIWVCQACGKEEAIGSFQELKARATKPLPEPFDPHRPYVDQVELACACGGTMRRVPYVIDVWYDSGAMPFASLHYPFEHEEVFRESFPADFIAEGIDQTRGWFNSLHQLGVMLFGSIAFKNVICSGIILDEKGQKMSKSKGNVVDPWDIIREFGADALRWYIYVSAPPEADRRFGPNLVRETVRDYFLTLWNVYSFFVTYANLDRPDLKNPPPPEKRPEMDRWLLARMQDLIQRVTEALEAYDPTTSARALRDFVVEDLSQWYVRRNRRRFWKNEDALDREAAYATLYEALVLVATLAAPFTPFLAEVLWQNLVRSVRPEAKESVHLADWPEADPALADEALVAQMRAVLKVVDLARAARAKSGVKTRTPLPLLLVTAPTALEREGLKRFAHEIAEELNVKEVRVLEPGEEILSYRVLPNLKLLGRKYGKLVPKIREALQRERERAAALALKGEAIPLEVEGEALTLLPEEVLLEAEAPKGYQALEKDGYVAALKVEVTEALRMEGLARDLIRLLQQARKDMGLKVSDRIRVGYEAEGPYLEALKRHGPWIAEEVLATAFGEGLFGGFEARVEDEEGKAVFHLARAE

Sequence of Isoleucine--tRNA ligase (Thermus thermophilus (strain HB8 / ATCC 27634 / DSM 579), UniProt P56690, L583F) (P56690 whole entry L583F): as the sequence (P56690 whole entry H581S/L583I) above, with S581H, I583F counted along it
Sequence of Isoleucine--tRNA ligase (Thermus thermophilus (strain HB8 / ATCC 27634 / DSM 579), UniProt P56690, H581N/L583F) (P56690 whole entry H581N/L583F): as the sequence (P56690 whole entry H581S/L583I) above, with S581N, I583F counted along it
Sequence of Isoleucine--tRNA ligase (Thermus thermophilus (strain HB8 / ATCC 27634 / DSM 579), UniProt P56690, H581L/L583H) (P56690 whole entry H581L/L583H): as the sequence (P56690 whole entry H581S/L583I) above, with S581L, I583H counted along it

**Q.** Which Activity [1] does the source give for `C[C@@H]1C[C@H](C)C[C@H](C)[C@@H](O)CC(=O)O[C@H]([C@@H]2CCC[C@H]2C(=O)OCc2cn(CSc3ccccc3)nn2)C/C=C/C=C(/C#N)[C@H](O)[C@@H](C)C1` here?
**A.** Its Activity is 16800 ng/mL.

**Q.** What does the source list for `C[C@H]1CCC[C@H](CC2Cc3cc(O)cc(O)c3C(=O)O2)O1` (stereo partly specified)?
**A.** Ratio IC50 (Saccharomyces cerevisiae [2]): 5.7; pIC50 [3]: 7.40; Ratio IC50 (Saccharomyces cerevisiae [4]): 38.7; Ratio IC50 (Saccharomyces cerevisiae [5]): 10.4; Ratio IC50 [6]: > 100

**Q.** With `O=c1c2cc(Cl)c(Br)cc2ncn1C[C@@H](O)C[C@H]1NCCC[C@@H]1O` as the compound, how does the pEC50 (Plasmodium berghei) read?
**A.** The pEC50 was 7.85.

**Q.** For `C[C@@H]1C[C@H](C)C[C@H](C)[C@@H](O)CC(=O)O[C@H]([C@@H]2CCC[C@H]2C(=O)O)C/C=C/C=C(/C#N)[C@H](O)[C@@H](C)C1` [BORRELIDIN], which Activity [1] is on record?
**A.** Its Activity is 201 ng/mL.

**Q.** With `O=C(CC1NCCCC1O)Cn1cnc2cc(Br)c(Cl)cc2c1=O` (stereo unspecified) [HALOFUGINONE] as the compound, how does the pEC50 (Plasmodium berghei) read?
**A.** The pEC50 was 7.77.

**Q.** With `CNC1=NC(=O)[C@H]([C@H](C)c2c[nH]c3ccccc23)O1` [INDOMYCIN] as the compound, how does the pIC50 [7] read?
**A.** The pIC50 was 2.39.

**Q.** And the pIC50 [8]?
**A.** Its pIC50 is 8.03.

**Q.** Which results are given for `C/C(=C\C(=O)OCCCCCCCCC(=O)O)C[C@@H]1OC[C@H](C[C@@H]2O[C@H]2[C@@H](C)[C@H](C)O)[C@@H](O)[C@H]1O` [MUPIROCIN]?
**A.** pKi (Isoleucine--tRNA ligase [9]): 7.22; pKi (Isoleucine--tRNA ligase [10]): 5.56; pKi (Isoleucine--tRNA ligase [11]): 5.64; pKi (Isoleucine--tRNA ligase [12]): 6.60; pKi (Isoleucine--tRNA ligase [13]): 4.82
